One molecule from patent US9302999B2, “Substituted triazoles as herbicides” (E. I. DU PONT DE NEMOURS AND COMPANY, priority 2012, dated 2016) can be followed below.

Structures are written as SMILES.

One experiment concerns Barnyardgrass. The experiment can be described thus: Test C postemergence: barnyardgrass. It is filed as in vivo, Echinochloa crus-galli. Particulars: 125 g ai/ha, scale 0 to 100, 0 no effect, 100 complete control. The text has this:
(§1) Seeds of plant species selected from blackgrass (Alopecurus myosuroides), bromegrass, downy (downy bromegrass, Bromus tectorum), foxtail, green (green foxtail, Setaria viridis), ryegrass, Italian (Italian ryegrass, Lolium multiflorum), winter wheat (Triticum aestivum), wild oat (Avena fatua), galium (catchweed bedstraw, Galium aparine), bermudagrass (Cynodon dactylon), surinam grass (Brachiaria decumbens), cocklebur (common cocklebur, Xanthium strumarium), corn (Zea mays), large crabgrass (Digitaria sanguinalis), woolly cupgrass (Eriochloa villosa), foxtail, giant (giant foxtail, Setaria faberii), goosegrass (Eleusine indica), johnsongrass (Sorghum halepense), kochia (Kochia scoparia), lambsquarters (Chenopodium album), morningglory (Ipomoea coccinea), nightshade (eastern black nightshade, Solanum ptycanthum), nutsedge, yellow (yellow nutsedge, Cyperus esculentus), pigweed (Amaranthus retroflexus), ragweed (common ragweed, Ambrosia elation), soybean (Glycine max), common (oilseed) sunflower (Helianthus annuus), Russian thistle (Salsola kali) and velvetleaf (Abutilon theophrasti) were planted into a blend of loam soil and sand and treated preemergence with test chemicals formulated in a non-phytotoxic solvent mixture which included a surfactant.
At the same time, plants selected from these crop and weed species and also barley (winter barley, Hordeum vulgare), canarygrass (Phalaris minor), chickweed (common chickweed, Stellaria media) windgrass (Apera spica-venti) and deadnettle (henbit deadnettle, Lamium amplexicaule) were planted in pots containing Redi-Earth® planting medium (Scotts Company, 14111 Scottslawn Road, Marysville, Ohio 43041) comprising spaghnum peat moss, vermiculite, wetting agent and starter nutrients and treated with postemergence applications of test chemicals formulated in the same manner. Plants ranged in height from 2 to 18 cm (1- to 4-leaf stage) for postemergence treatments.
(§2) Treated plants and controls were maintained in a greenhouse for 13 to 15 days, after which time all species were compared to controls and visually evaluated. Plant response ratings, summarized in Table C, are based on a scale of 0 to 100 where 0 is no effect and 100 is complete control. A dash (-) response means no test result.

The next experiment relates to Waterhemp. The experiment can be described thus: Test C preemergence: waterhemp. It is filed as in vivo. The settings on record: 62 g ai/ha, scale of 0 to 100, 0 is no effect, 100 is complete control.
From the text: as §1, §2

In experiment [1] the test system is johnsongrass (Sorghum halepense). The experiment can be described thus: Test F pre-/postemergence: johnsongrass. Format: in vivo. Particulars: Preemergence. A digest of the protocol:
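Seeds were sown in silt loam soil and sprayed preemergence with test chemical in a non-phytotoxic solvent mixture containing surfactant; postemergence treatments went onto plants 2 to 18 cm tall (1- to 4-leaf stage) grown in peat moss/vermiculite medium. After 14 to 21 days in a greenhouse, injury was rated visually against controls, 0 (no effect) to 100 (complete control).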

Turning to `Cc1nn(-c2ccc(C(F)(F)F)c(F)c2)nc1Cc1ccnc(C(F)(F)F)c1` [Compound 162], the “Plant response rating, Barnyardgrass” value in the experiment with Barnyardgrass is 90. In the experiment on Waterhemp, the “Plant response rating, Waterhemp” value is on record as 100. Moreover, the “Plant response rating, Johnsongrass” value in experiment [1] (4 g ai/ha, scale 0 to 100, 0 no effect, 100 complete control) is 20; in experiment [1] (8 g ai/ha, scale 0 to 100, 0 no effect, 100 complete control) it was 20; in experiment [1] (16 g ai/ha, scale 0 to 100 (0 no effect, 100 complete control)), 20; in experiment [1] (31 g ai/ha, scale 0 to 100 (0 no effect, 100 complete control)), 20; in experiment [1] (62 g ai/ha, scale 0 to 100), 20.
